Experimental data reported in patent publication US20210330693A1, “HEPARANASE INHIBITORS AND THEIR USE AS ANTI-CANCER COMPOUNDS” (Wayne State University, priority 2018, published 2021).

What was measured:
[1] = tested on: 4T1 mammary carcinoma cells; test: 4T1 experimental metastasis assay; assay type: in vivo, BALB/c mice; conditions: IVIS imaging day 7; glycopolymer 100 μg/mouse i.p. 20 min before and together with the cells
Procedure: 4T1 Metastasis Assay. Luciferase-labeled 4T1 mammary carcinoma cells (1×10^5/mouse) were injected i.v. (n=6 mice/group) with vehicle alone (control, PBS), with positive control (heparin), or with GlcNS(6S)α((1,4)GlcA glycopolymer (DP=12, 100 μg/mouse) into BALB/c mice (i.p) 20 min prior to cell inoculation and also together with the cells. IVIS bioluminescent imaging was performed on day 7 after cell inoculation. For IVIS imaging, mice were injected intraperitoneally with D-luciferin substrate at 150 mg/kg and anesthetized with continuous exposure to isoflurane (EZAnesthesia, Palmer, Pa.). The experiment was repeated 3 times with similar results.
4T1 Metastasis Assay (Menhofer, et al., PLOS ONE 2014, 9, el 12542). Luciferase-labeled 4T1 breast carcinoma cells (1×10^5/mouse) were injected i.v (n=6 mice/group) with vehicle alone (control, PBS), with positive control (heparin), or with GlcNS(6S)α(1,4)GlcA glycopolymer (DP=12, 100 μg/mouse) into BALB/c mice (i.p) 20 min prior to cell inoculation and also together with the cells. IVIS bioluminescent imaging was performed on day 7 after cell inoculation. […] Light emitted from the bioluminescent cells is detected by the IVIS camera system with images quantified for tumor burden using a log-scale color range set at 5×10^4 to 1×10^7 and measurement of total photon counts per second (PPS) using Living Image software (Xenogen). […]

FGF-2 = target: T1, FGF-2 (Homo sapiens, UniProt P09038); test: Solution-based competitive BLI assay, FGF-2; assay type: binding; conditions: competition with immobilized biotin-heparin (18 kDa), 25° C., read-out: dissociation constant (apparent Kd) to FGF-2
T1 construct: purchased R&D Systems
T1 sequence (P09038 143-288, species assumed): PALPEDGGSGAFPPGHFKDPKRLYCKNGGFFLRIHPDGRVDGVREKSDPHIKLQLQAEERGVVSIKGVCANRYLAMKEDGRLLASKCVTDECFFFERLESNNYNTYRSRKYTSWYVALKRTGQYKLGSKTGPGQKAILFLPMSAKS
Procedure: (§1) Biolayer Interferometry Cross-Bioactivity Assay. BLI assays were performed on an Octet Red Instrument (fortéBIO) at 25° C. Immobilization and binding analysis were carried out at 1000 rpm using HBS-EP buffer.
(§2) Biolayer Interferometry (BLI) Assay. BLI assays were performed on an Octet Red Instrument (fortéBIO) at 25° C. Immobilization and binding analysis were carried out at 1000 rpm using HBS-EP buffer [10 mM HEPES, pH 7.4, 150 mM NaCl, 3.0 mM EDTA, and 0.005% (v/v) surfactant tween20]. A solution affinity assay, used to determine affinities of ligands by SPR analysis, was adopted to BLI (Cochran et al., Glycoconjugate J. 2009, 26, 577-587.). In this method, protein is mixed with various concentrations of ligand (glycopolymer C5A or heparin, 18 kDa). Free protein in this equilibrium mixture is tested for binding against immobilized heparin (all proteins are carrier-free and purchased from R&D Systems). Heparin-biotin (Creative PEGworks, 18 kDa, 1 biotin per HP polymer), 5 μg/mL was immobilized on to streptavidin biosensors (fortéBio) for 5 min. Binding experiments were carried out under conditions of mass transport. Binding was fitted to equation 1 (as taught in reference Chai, et al. Anal. Biochem. 2009, 395, 263-264.) using Graphpad Prism. BLI response was used in place of F and ligand (heparin/glycopolymer C5A) concentration was used in place of [metal]. […]

FGF-1 = target: T2, FGF-1 (Homo sapiens, UniProt P05230); test: Solution-based competitive BLI assay, FGF-1; assay type: binding; conditions: competition with immobilized biotin-heparin (18 kDa), 25° C., read-out: dissociation constant (apparent Kd) to FGF-1
T2 construct: purchased R&D Systems
T2 sequence (P05230 whole entry, species assumed): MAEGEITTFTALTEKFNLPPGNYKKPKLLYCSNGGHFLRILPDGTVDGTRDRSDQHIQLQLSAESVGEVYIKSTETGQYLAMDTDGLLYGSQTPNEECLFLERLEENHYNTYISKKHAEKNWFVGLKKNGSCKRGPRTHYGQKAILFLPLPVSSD
Procedure: as §1, §2

platelet factor-4 (PF4) = target: T3, platelet factor-4 (PF4) (Homo sapiens, UniProt P02776); test: Solution-based competitive BLI assay, PF4; assay type: binding; conditions: competition with immobilized biotin-heparin (18 kDa), 25° C., read-out: dissociation constant (apparent Kd) to PF4
T3 construct: purchased R&D Systems
T3 sequence (P02776 32-101): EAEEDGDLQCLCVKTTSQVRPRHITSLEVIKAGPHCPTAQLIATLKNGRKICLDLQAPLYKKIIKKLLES
Procedure: as §1, §2

P-selectin = target: T4, P-selectin (Homo sapiens, UniProt P16109); test: Solution-based competitive BLI assay, P-selectin; assay type: binding; conditions: HBS-EP buffer with 2 mM CaCl2, 2 mM MgCl2 and 0.5 mg/mL BSA
T4 construct: purchased R&D Systems
T4 sequence (P16109 42-830): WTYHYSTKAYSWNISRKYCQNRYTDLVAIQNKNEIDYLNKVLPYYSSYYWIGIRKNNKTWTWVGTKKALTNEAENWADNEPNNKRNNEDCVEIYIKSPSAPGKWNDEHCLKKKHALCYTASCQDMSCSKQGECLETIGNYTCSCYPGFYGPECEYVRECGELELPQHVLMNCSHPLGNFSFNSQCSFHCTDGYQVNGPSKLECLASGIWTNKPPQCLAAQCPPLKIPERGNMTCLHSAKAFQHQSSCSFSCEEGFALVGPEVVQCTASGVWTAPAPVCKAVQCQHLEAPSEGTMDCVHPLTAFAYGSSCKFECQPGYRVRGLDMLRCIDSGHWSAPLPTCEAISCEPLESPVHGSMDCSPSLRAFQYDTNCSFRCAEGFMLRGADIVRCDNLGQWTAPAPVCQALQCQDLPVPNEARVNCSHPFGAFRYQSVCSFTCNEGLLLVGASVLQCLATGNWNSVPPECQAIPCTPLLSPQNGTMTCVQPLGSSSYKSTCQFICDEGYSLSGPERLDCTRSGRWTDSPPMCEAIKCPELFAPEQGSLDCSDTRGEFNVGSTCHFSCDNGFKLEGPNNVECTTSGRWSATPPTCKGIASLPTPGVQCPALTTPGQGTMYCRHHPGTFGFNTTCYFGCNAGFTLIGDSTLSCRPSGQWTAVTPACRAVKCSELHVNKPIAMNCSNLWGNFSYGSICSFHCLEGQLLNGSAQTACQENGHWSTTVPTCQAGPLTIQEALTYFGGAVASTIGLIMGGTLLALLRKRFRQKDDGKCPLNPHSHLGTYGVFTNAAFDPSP
Procedure: as §1, §2

VEGF = target: T5, VEGF (Homo sapiens, UniProt P15692); test: Solution-based competitive BLI assay, VEGF; assay type: binding; conditions: competition with immobilized biotin-heparin (18 kDa), 25° C., read-out: dissociation constant (apparent Kd) to VEGF
T5 construct: purchased R&D Systems
T5 sequence (P15692 27-191 isoform P15692-4): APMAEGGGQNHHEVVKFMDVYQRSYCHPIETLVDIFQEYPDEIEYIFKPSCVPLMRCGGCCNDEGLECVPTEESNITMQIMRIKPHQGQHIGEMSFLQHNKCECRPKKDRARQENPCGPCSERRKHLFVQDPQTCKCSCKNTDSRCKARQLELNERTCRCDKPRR
Procedure: as §1, §2

Kd (FGF-2)	Kd (FGF-1)	Kd (platelet factor-4 (PF4))	Kd (P-selectin)	Kd (VEGF)	Substance	antimetastatic effect, lung metastasis of 4T1 cells [1]
					Roneparstat	effect was similar
0.15 ± 0.11 nM	4.6 ± 3.3 nM	0.31 ± 0.028 nM	125 ± 152 nM	4.91 ± 1.55 nM	heparin [reference compound]	reduced the size of the metastasized lung tumor by half
